Laboratory results reported in patent US20230203004A1, “RSV INHIBITING 3-SUBSTITUTED QUINOLINE AND CINNOLINE DERIVATIVES” (Janssen Sciences Ireland Unlimited Company, priority 2020, published 2023).

Experiments:
[1] = system: rgRSV224 virus; experiment: Antiviral activity: rgRSV224 (GFP) replication in HeLa cells; type: cell-based, respiratory syncytial virus (RSV); details: human respiratory syncytial virus, HeLa, 72 h, read-out: RSV HELA EC50, HeLa cells, rgRSV224 MOI = 1, GFP expression three days post-virus exposure; averaged data of several repeat experiments
Summary of the method: (§1)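 HeLa cells infected with GFP-expressing rgRSV224 at MOI 1 in RPMI/10% FBS, 0.05% DMSO, with 9 serial 4-fold compound dilutions; 3 days at 37 °C, GFP read by laser microscopy for EC50. Cytotoxicity: uninfected HeLa cells, 3 days, cellular ATP (ATPlite) for CC50.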

[2] = Cytotoxicity in HeLa cells (ATP content, ATPlite kit); type: cell-based; details: human, TOX HELA CC50
Summary of the method: as §1

| SMILES | EC50 [1] [µM] | CC50 at 3 days [2] [µM] |
| --- | --- | --- |
| COc1cc(C(=O)NC[C@](O)(c2cc(C(C)(C)O)c(Cl)c(-c3ccc(F)cc3)n2)C2CC2)cc2cc(C)cnc12 [compound 205, (-)-N-{2-[5-Chloro-6-(4-Fluorophenyl)-4-(2-Hydroxypropan-2-yl)Pyridin-2-yl]-2-Cyclopropyl-2-Hydroxyethyl}-8-Methoxy-3-Methylquinoline-6-Carboxamide] | 0.00081 | 32 |
| COc1cc(C(=O)NC[C@](O)(c2cc(C(C)(C)O)c(Cl)c(-c3ccc(F)cc3)n2)C(F)(F)F)cc2cc(C(F)(F)F)cnc12 [compound 328, (-)(Trifluoromethyl)-8-Methoxy-N-(3,3,3-Trifluoro-2-(5-Chloro-6-(4-Fluorophenyl)-4-(2-Hydroxypropan-2-yl)Pyridin-2-yl)-2-Hydroxypropyl)Quinoline-6-Carboxamide] | 0.04 | 14 |
| COc1cc(C(=O)NC[C@](O)(c2cc(C(C)(C)O)c(F)c(-c3ccc(F)c(F)c3)n2)C2CC2)cc2cc(C(F)F)nnc12 [compound 270, (-)-N-{2-Cyclopropyl-2-[6-(3,4-Difluorophenyl)-5-Fluoro-4-(2-Hydroxypropan-2-yl)Pyridin-2-yl]-2-Hydroxyethyl}-3-(Difluoromethyl)-8-Methoxycinnoline-6-Carboxamide] | 0.00084 | 15 |
| COc1cc(C(=O)NC[C@](O)(c2cc(C(C)(C)O)c(F)c(-c3ccc(F)cc3)n2)C(C)C)cc2cc(C3CC3)nnc12 [compound 283, (-)Cyclopropyl-N-(2-(5-Fluoro-6-(4-Fluorophenyl)-4-(2-Hydroxypropan-2-yl)Pyridin-2-yl)-2-HydroxyMethylbutyl)-8-Methoxycinnoline-6-Carboxamide] | 0.0085 | 12 |
| COc1cc(C(=O)NC[C@](O)(c2cc(C(C)(C)O)c(F)c(-c3ccc(F)cc3)n2)C2CC2)cc2cc(C)cnc12 [compound 206] | 0.00046 | 15 |
| COc1cc(C(=O)NC[C@](O)(c2cc(C(C)(C)O)c(F)c(-c3ccc(F)cc3)n2)C2CC2)cc2cc(C3CC3)cnc12 [compound 332, (-)Cyclopropyl-N-(2-Cyclopropyl-2-(5-Fluoro-6-(4-Fluorophenyl)-4-(2-Hydroxypropan-2-yl)Pyridin-2-yl)-2-Hydroxyethyl)-8-Methoxyquinoline-6-Carboxamide] | 0.033 | 14 |
| COc1cc(C(=O)NC[C@](O)(c2cc(C(C)(C)NS(C)(=O)=O)c(F)c(-c3ccc(F)cc3)n2)C(F)(F)F)cc2cc(C)nnc12 [compound 237, (-)Methoxy-3-Methyl-N-{3,3,3-Trifluoro-2-[5-Fluoro-6-(4-Fluorophenyl)-4-{2-[(MethaneSulfonyl)Amino]propan-2-yl}Pyridin-2-yl]-2-Hydroxypropyl}Cinnoline-6-Carboxamide] | 0.0051 | 51 |
| COc1cc(C(=O)NC[C@](O)(c2cc(C(C)(C)O)c(F)c(-c3ccc(Cl)cc3)n2)C2CC2)cc2cc(C)nnc12 [compound 278] | 0.00065 | 29 |
| COc1cc(C(=O)NC[C@@](O)(c2cc(C(C)(C)O)c(F)c(-c3ccc(F)cc3)n2)C2C[C@H]2F)cc2cc(C)nnc12 (single isomer, unassigned) [compound 303, N-((*R)(5-Fluoro-6-(4-Fluorophenyl)-4-(2-Hydroxypropanyl)Pyridinyl)((l*R, 2*R)Fluorocyclopropyl)Hydroxyethyl)-8-Methoxy-3-Methylcinnoline-6-Carboxamide] | 0.295 | 23 |
| COc1cc(C(=O)NC[C@](O)(c2nc(-c3ccc(F)cc3)c(F)c(C(C)(C)O)c2F)C(F)(F)F)cc2cc(C)nnc12 [compound 240, (-)-N-{2-[3,5-Difluoro-6-(4-Fluorophenyl)-4-(2-Hydroxypropan-2-yl)Pyridin-2-yl]-3,3,3-Trifluoro-2-Hydroxypropyl}-8-Methoxy-3-Methylcinnoline-6-Carboxamide] | 0.0012 | 46 |
| COc1cc(C(=O)NCC(O)(c2nc(-c3ccc(F)cc3)cc(C(C)(C)O)c2F)C(F)(F)F)cc2cc(C)nnc12 (racemic) [compound 279, (RS)Methoxy-3-Methyl-N-(3,3,3-Trifluoro-2-(3-Fluoro-6-(4-Fluorophenyl)-4-(2-Hydroxypropan-2-yl)Pyridin-2-yl)-2-Hydroxypropyl)Cinnoline-6-Carboxamide] | 0.047 | 16 |
| COc1cc(C(=O)NC[C@](O)(c2cc(C(C)(C)O)c(F)c(-c3ccc(Cl)cc3)n2)C2CC2)cc2cc(C)cnc12 [compound 208, (-)-N-{2-[6-(4-chlorophenyl)-5-fluoro-4-(2-hydroxypropan-2-yl)pyridin-2-yl]-2-cyclopropyl-2-hydroxyethyl}-8-methoxy-3-methylquinoline-6-carboxamide] | 0.001 | 14 |
| COc1cc(C(=O)NC[C@](O)(c2cc(C(C)(C)O)c(Cl)c(-c3ccc(F)cc3)n2)C2CC2)cc2cc(C)c(F)nc12 [compound 215] | 0.00087 | 20 |
| COc1cc(C(=O)NC[C@](O)(c2nc(-c3ccc(F)cc3)c(F)c(C(C)(C)O)c2F)C(F)(F)F)cc2cc(C)c(F)nc12 [compound 211, (-)-N-{2-[3,5-Difluoro-6-(4-Fluorophenyl)-4-(2-Hydroxypropan-2-yl)Pyridin-2-yl]-3,3,3-Trifluoro-2-Hydroxypropyl}-2-Fluoro-8-Methoxy-3-Methylquinoline-6-Carboxamide] | 0.0028 | 29 |
| COc1cc(C(=O)NC[C@@](O)(c2nc(-c3ccc(F)cc3)c(F)c(C(C)(C)NS(C)(=O)=O)c2F)C(F)(F)F)cc2cc(C)nnc12 [compound 244, (+)-N-{2-[3,5-Difluoro-6-(4-Fluorophenyl)-4-{2-[(Methanesulfonyl)Amino]Propan-2-yl}Pyridin-2-yl]-3,3,3-Trifluoro-2-Hydroxypropyl}-8-Methoxy-3-Methylcinnoline-6-Carboxamide] | 0.058 | 43 |
| COc1cc(C(=O)NC[C@](O)(c2nc(-c3ccc(F)cc3)c(F)c(C(C)(C)O)c2F)C(F)(F)F)cc2cc(C)cnc12 [compound 201, (-)-N-{2-[3,5-difluoro-6-(4-fluorophenyl)-4-(2-hydroxypropan-2-yl)pyridin-2-yl)-3,3,3-trifluoro-2-hydroxypropyl}-8-methoxy-3-methylquinoline-6-carboxamide] | 0.0026 | 43 |
| COc1cc(C(=O)NC[C@](O)(c2cc(C(C)(C)O)c(F)c(-c3ccc(F)cc3)n2)C2CC2(C)C)cc2cc(C)nnc12 (single isomer, unassigned) [compound 294, N-((-)(2,2-dimethylcyclopropyl)(5-fluoro-6-(4-fluorophenyl)-4-(2-hydroxypropanyl)pyndmyl)hydroxyethyl)-8-methoxy-3-methylcmnoline-6-carboxamide] | 0.0049 | 13 |
| COc1cc(C(=O)NCC(O)(c2cc(C(C)(C)O)c(F)c(-c3ccc(F)cc3)n2)[C@H]2CC2(F)F)cc2cc(C)nnc12 (stereo in doubt) [compound 319, N-((*R)-2,2-Difluorocyclopropyl)-2-(5-Fluoro-6-(4-Fluorophenyl)-4-Hydroxypropan-2-yl)Pyridin-2-yl)-2-Hydroxyethyl)-8-Methoxy-3-Methylcinnoline-6-Carboxamide] | 0.0012 | 6.1 |
| COc1cc(C(=O)NC[C@](O)(c2cc(C(C)(C)O)cc(-c3ccc(F)cc3)n2)C(C)(F)F)cc2cc(C)nnc12 [compound 309, (-)-N-(3,3-difluoro-2-(6-(4-fluorophenyl)-4-(2-hydroxypropan-2-yl)pyridin-2-yl)-2-hydroxybutyl)-8-methoxy-3-methylcinnoline-6-carboxamide] | 0.011 | 34 |
| COc1cc(C(=O)NC[C@](O)(c2nc(-c3ccc(F)cc3)c(Cl)c(C(C)(C)O)c2F)C(F)(F)F)cc2cc(C)nnc12 [compound 247, (-)-N-{2-[5-Chloro-3-Fluoro-6-(4-Fluorophenyl)-4-(2-Hydroxypropan-2-yl)Pyridin-2-yl]-3,3,3-Trifluoro-2-Hydroxypropyl}-8-Methoxy-3-Methylcinnoline-6-Carboxamide] | 0.0019 | 51 |
| Cc1cnc2c(OC3CC3)cc(C(=O)NC[C@](O)(c3cc(C(C)(C)O)c(Cl)c(-c4ccc(F)cc4)n3)C(F)(F)F)cc2c1 [compound 219, (-)-N-{2-[5-Chloro-6-(4-Fluorophenyl)-4-(2-Hydroxypropan-2-yl)Pyridin-2-yl]-3,3,3-Trifluoro-2-Hydroxypropyl}-8-(Cyclopropyloxy)-3-Methylquinoline-6-Carboxamide] | 0.005 | 27 |
| Cc1cc2cc(C(=O)NC[C@](O)(c3cc(C(C)(C)O)c(F)c(-c4ccc(F)cc4)n3)C(F)(F)F)cc(OC3CC3)c2nn1 [compound 318, (-)Cyclopropoxy-3-Methyl-N-(3.3.3-Trifluoro-2-(5-Fluoro-6-(4-Fluorophenyl)-4-(2-Hydroxypropan-2-yl)Pyridin-2-yl)-2-Hydroxypropyl)Cinnoline-6-Carboxamide] | 0.0014 | 22 |
| COc1cc(C(=O)NC[C@](O)(c2cc(C(C)(C)O)c(Cl)c(-c3ccc(F)cc3)n2)C(F)(F)F)cc2cc(C(F)F)cnc12 [compound 327, (-)(Difluoromethyl)-8-Methoxy-N-(3,3,3-Trifluoro-2-(5-Chloro-6-(4-Fluorophenyl)-4-(2-Hydroxypropan-2-yl)Pyridin-2-yl)-2-Hydroxypropyl)Quinoline-6-Carboxamide] | 0.0095 | 15 |
| COc1cc(C(=O)NC[C@](O)(c2cc(C(C)(C)O)c(F)c(-c3ccc(F)cc3)n2)C2(C)CC2)cc2cc(C)nnc12 [compound 298] | 0.0026 | 52 |
